What was measured:
rat Oct3 = molecular target: T1, rat Oct3 (Rattus norvegicus, UniProt O88446); assay: Cellular transport assay, HEK-293 cells expressing rat Oct3; details: Danshen phenolic acid at 100 μM final concentration, 10 min; rat Oct3-transfected vs mock cells
T1 sequence (O88446 1-551): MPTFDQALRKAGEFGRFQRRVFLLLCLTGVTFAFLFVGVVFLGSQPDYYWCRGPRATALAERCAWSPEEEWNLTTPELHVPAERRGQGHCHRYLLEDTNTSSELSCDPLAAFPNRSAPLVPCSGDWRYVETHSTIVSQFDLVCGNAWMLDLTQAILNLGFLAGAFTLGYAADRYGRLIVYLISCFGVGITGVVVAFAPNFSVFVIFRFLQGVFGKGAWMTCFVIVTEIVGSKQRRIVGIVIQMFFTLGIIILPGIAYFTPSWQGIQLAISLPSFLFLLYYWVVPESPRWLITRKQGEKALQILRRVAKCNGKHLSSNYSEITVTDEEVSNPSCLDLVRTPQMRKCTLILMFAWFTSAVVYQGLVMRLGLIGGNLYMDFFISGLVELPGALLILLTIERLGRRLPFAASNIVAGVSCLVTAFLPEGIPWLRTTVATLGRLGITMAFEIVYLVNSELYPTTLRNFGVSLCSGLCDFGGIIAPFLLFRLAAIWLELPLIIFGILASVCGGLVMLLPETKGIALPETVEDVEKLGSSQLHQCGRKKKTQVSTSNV

rat Bcrp = molecular target: T2, rat Bcrp (Rattus norvegicus, UniProt Q80W57); assay: Vesicular transport assay, inside-out membrane vesicles expressing rat Bcrp; details: 10 min
T2 sequence (Q80W57 1-657): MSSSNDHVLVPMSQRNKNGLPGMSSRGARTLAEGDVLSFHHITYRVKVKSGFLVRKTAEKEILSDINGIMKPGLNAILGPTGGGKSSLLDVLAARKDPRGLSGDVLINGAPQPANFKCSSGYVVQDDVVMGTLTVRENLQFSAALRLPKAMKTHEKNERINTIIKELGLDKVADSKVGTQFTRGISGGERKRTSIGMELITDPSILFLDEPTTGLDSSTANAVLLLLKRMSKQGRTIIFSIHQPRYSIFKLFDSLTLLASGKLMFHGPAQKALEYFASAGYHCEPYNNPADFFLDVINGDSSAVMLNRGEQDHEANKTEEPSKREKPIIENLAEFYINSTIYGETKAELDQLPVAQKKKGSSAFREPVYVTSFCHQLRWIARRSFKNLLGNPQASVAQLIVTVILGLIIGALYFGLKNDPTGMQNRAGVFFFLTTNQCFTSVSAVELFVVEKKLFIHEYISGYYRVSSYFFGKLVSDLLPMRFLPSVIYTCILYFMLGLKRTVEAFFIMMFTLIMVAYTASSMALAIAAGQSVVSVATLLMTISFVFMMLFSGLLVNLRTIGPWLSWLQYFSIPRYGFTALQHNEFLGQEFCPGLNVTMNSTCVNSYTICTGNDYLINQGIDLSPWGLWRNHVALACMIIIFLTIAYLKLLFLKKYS
Method: Inside-out membrane vesicles (5 mg protein/mL), prepared from insect cells expressing human multidrug resistance-associated protein (MRP) 2, MRP3, MRP4, breast cancer resistance protein (BCRP), bile salt export pump (BSEP), and multidrug resistance protein (MDR) one and rat Mrp2, Mrp4, Bcrp, and Bsep, and vesicles (5 mg protein/mL; prepared from the insect cells expressing no ABC transporter; serving as negative control) were obtained from Genomembrane (Kanazawa, Japan).
The test Danshen compounds at 100 µM final concentration were separately incubated with the membrane vesicles for 10 min. Buffer C (50 mM MOPS-tris, 70 mM KCl, 7.5 mM MgCl2, pH 7.0) was used for preincubation and incubation, while buffer D (40 mM MOPS-tris, 70 mM KCl, pH 7.0) was used for vesicle washing. The transport rate (pmol/mg protein/min) of the test Danshen compound was calculated using Equation (2): Transport=(CV×VV)/T/WV (2) where C V, V V, T, and W V represent concentration of the compound in vesicular lysates supernatant (μM), volume of the lysates (μL), incubation time (10 min), and amount of vesicle protein amount per well (0.05 mg), respectively. Differential transport of the test Danshen compound between ATP-containing vesicles and AMP-containing vesicles was defined as net transport ratio (TransportATP/TransportAMP ratio). […] All the incubation samples were analyzed by liquid chromatography/mass spectrometry.

rat Pept2 = molecular target: T3, rat Pept2 (Rattus norvegicus, UniProt Q63424); assay: Cellular transport assay, HEK-293 cells expressing rat Pept2; details: Danshen phenolic acid at 100 μM final concentration, 10 min, incubation pH 6.0; rat Pept2-transfected vs mock cells
T3 sequence (Q63424 1-729): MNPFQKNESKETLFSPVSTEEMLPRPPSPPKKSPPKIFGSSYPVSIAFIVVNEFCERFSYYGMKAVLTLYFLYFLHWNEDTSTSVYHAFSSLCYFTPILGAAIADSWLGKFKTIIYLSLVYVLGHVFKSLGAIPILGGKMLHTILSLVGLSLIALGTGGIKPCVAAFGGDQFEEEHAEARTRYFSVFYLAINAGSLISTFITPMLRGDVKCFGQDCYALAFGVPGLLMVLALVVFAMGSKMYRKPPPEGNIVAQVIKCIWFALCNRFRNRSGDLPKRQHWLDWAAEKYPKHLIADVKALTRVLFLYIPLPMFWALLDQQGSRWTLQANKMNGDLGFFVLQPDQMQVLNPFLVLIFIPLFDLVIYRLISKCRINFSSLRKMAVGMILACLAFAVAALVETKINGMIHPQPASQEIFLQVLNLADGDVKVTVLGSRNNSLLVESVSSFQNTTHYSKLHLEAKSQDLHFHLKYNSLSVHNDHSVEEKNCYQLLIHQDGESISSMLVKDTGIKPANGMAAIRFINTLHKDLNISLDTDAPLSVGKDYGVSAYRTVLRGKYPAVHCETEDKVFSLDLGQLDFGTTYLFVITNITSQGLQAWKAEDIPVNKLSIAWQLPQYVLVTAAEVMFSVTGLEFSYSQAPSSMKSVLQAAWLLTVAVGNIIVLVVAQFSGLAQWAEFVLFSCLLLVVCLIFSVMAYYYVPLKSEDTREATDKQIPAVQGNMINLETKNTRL

[1] = Danshen phenolic acid at 100 μM final concentration, rat Bcrp vesicles

Row | Compound | TransportTC/TransportMC ratio (net transport ratio) (rat Oct3) | TransportATP/TransportAMP ratio (net transport ratio) (rat Bcrp; rat, not told, 100 μM, pH 7) | TransportATP/TransportAMP ratio (net transport ratio) (rat Bcrp; [1]) | TransportTC/TransportMC ratio (net transport ratio) (rat Pept2)
1 | O=C(/C=C/c1ccc(O)c(O)c1)O[C@H](Cc1ccc(O)c(O)c1)C(=O)O [Rosmarinic acid, rosmarinic acid] | 0.74 ± 0.24 | 1.45 ± 0.32 |  | 
2 | O=C(O)c1ccc(O)c(O)c1 [Protocatechuic acid, protocatechuic acid] | 0.85 ± 0.11 |  | 0.94 ± 0.21 | 1.21 ± 0.26
3 | O=C(/C=C/c1ccc(O)c(O)c1/C=C/c1ccc(O)c(O)c1)O[C@H](Cc1ccc(O)c(O)c1)C(=O)O [Salvianolic acid A, salvianolic acid A] |  | 1.31 ± 0.04 |  | 
4 | O=C(O)Cc1c(/C=C/C(=O)O[C@H](Cc2ccc(O)c(O)c2)C(=O)O)ccc(O)c1O [Salvianolic acid D, salvianolic acid D] | 0.93 ± 0.15 |  |  | 1.88 ± 0.45
5 | salvianolic acid B | 0.84 ± 0.31 |  | 1.13 ± 0.14 | 0.94 ± 0.21
6 | O=C(/C=C/c1ccc(O)c2c1[C@H](C(=O)O)[C@@H](c1ccc(O)c(O)c1)O2)O[C@H](Cc1ccc(O)c(O)c1)C(=O)O [Lithospermic acid, lithospermic acid] | 0.81 ± 0.13 |  | 1.27 ± 0.20 | 0.85 ± 0.14
